The results in this text go back to article PMC12188320 (2025).

Assay [1] deals with NRAS (RNA, G4) UGUGGGAGGGGCGGGUCUGGGUGC
The experiment in a line: luminescence and absorbance titration. The settings on record: K+ (10 mM potassium phosphate, 100 mM KCl); RNase-free buffer; Ru-PIC 2 µM, NRAS 0-6 µM; negligible spectral change; no constant.

Assay [2] has the same test system. In words: CD melting. The settings on record: Li+ (10 mM LiCl, 100 mM lithium cacodylate); pH 7; NRAS 5 µM, Ru-PIC 2 equivalents (10 µM); no stabilization observed.
The subject of assay [3] is CMYC (DNA, G4) TGGGGAGGGTGGGGAGGGTGGGGAAGG
The experiment in a line: CD melting. The settings on record: Li+ (10 mM LiCl, 100 mM lithium cacodylate; supplement: 90 mM LiCl, 10 mM cacodylate); pH 7; CMYC 5 µM, Ru-PIC 2 equivalents (10 µM).

Assay [4] has the same test system. In words: absorbance and luminescence titration. The conditions noted are these: K+ (10 mM potassium phosphate, 100 mM KCl); Ru-PIC 10 µM, CMYC 0-30 µM; no constant.

Each structure is given as a SMILES string.

What is called ΔTm is the change in melting temperature against a reference sample. Take `O=C(O)c1ccc(-c2nc3c4cccnc4c4ncccc4c3[nH]2)cc1.[Ru+2].c1ccc(-c2ccccn2)nc1.c1ccc(-c2ccccn2)nc1`: the binding entry is “weak” in assay [1], “no” in assay [2] and “yes” in assay [4]. In addition, the ΔTm in assay [3] amounted to 9.1 ± 0.3 °C.
